Test results: ChEMBL document CHEMBL1159360, “Bioactive asterosaponins from the starfish Luidia quinaria and Psilaster cassiope. Isolation and structure characterization by two-dimensional NMR spectroscopy” (J Nat Prod, 2003)
Activity calls are given as the source filed them. The calls are words filed in the database; no cut-off is given here.

What was measured:
RBL-2H3 = test: Cytotoxicity against rat RBL2H3 after 24 hrs by MTT assay; type: functional, cell-based; details: RBL-2H3, 24 h
C6 = test: Cytotoxicity against rat C6 after 24 hrs by MTT assay; type: functional, cell-based

Row | Compound | IC50 (RBL-2H3) [µg/mL] | Activity (C6)
1 | CC(C)CC(=O)C[C@](C)(O)[C@H]1CC[C@H]2[C@@H]3C[C@H](O[C@@H]4O[C@H](C)[C@@H](O)[C@H](O[C@@H]5OC[C@@H](O[C@@H]6O[C@H](CO)[C@H](O)[C@H](O)[C@H]6O[C@@H]6O[C@H](C)[C@H](O)[C@H](O[C@@H]7O[C@@H](CO)[C@H](O)[C@H]7O)[C@H]6O)[C@H](O)[C@H]5O[C@@H]5O[C@H](C)[C@@H](O)[C@H](O)[C@H]5O)[C@H]4O)[C@H]4C[C@@H](OS(=O)(=O)[O-])CC[C@]4(C)C3=CC[C@@]21C.[Na+] [PSILASTEROSIDE] | 5.4 | inactive
2 | CC(C)CC(=O)C[C@](C)(O)[C@H]1CC[C@H]2[C@@H]3C[C@H](O[C@@H]4O[C@H](C)[C@@H](O)[C@H](O[C@@H]5O[C@H](CO)[C@@H](O[C@@H]6O[C@H](C)[C@@H](O)[C@H](O)[C@H]6O[C@@H]6O[C@H](C)[C@H](O)[C@H](O)[C@H]6O)[C@H](O)[C@H]5O[C@@H]5O[C@H](C)[C@@H](O)[C@H](O)[C@H]5O)[C@H]4O)[C@H]4C[C@@H](OS(=O)(=O)[O-])CC[C@]4(C)C3=CC[C@@]21C.[Na+] [LUIDIAQUINOSIDE] | 31.3 | inactive
